This note sets out measurements from patent US20140378541A1, “Synthetic Epigallocatechin Gallate (EGCG) Analogs” (WAYNE STATE UNIVERSITY, priority 2011, published 2014).

As usually defined, the inhibition is the drop in the measured response relative to a control, in per cent. A lower inhibition goes with little suppression.

Numbering of substitutions follows the chain as printed.

For assay [1], the target named is T1, purified rabbit 20S proteasome (Oryctolagus cuniculus, UniProt G1T4Q9).
T1 sequence (G1T4Q9 60-263): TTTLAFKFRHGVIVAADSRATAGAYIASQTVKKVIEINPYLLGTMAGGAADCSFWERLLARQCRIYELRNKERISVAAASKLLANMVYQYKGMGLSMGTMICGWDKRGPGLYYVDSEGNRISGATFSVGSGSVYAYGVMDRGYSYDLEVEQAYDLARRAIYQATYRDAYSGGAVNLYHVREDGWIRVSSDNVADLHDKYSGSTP
Kind of assay: Inhibition of chymotrypsin-like activity of purified 20S proteasome. It is filed as biochemical. Particulars: purified 20S proteasome, concentration not stated. As for the experimental part:
Purified 20S proteasome was incubated with compound 5, 7, 16, or 21 (A) or MDA-MB-231 cell extract (5.7 μg) was incubated with compound 6, 8, 17, or 22 (B) at indicated concentrations for 2 hours, followed by measuring the proteasomal chymotrypsin-like activity. EGCG was used as a comparative standard.
Purified rabbit 20S proteasome and fluorogenic substrate Suc-LLVY-AMC for the proteasomal chymotrypsin like (CT-like) activity were obtained from Calbiochem Inc. (San Diego, Calif.). Fetal bovine serum (FBS) was from Tissue Culture Biologicals (Tulare, Calif.). Penicillin and streptomycin were purchased from Invitrogen Co. (Carlsbad, Calif.). RPMI 1640 medium was purchased from Invitrogen Co. (Carlsbad, Calif.). MTT (3-4,5-dimethylthiazol-2-yl-2.5-diphenyl-tetrazolium bromide) was purchased from Sigma-Aldrich.
A purified rabbit 20S proteasome (35 ng) was incubated with 20 μM of substrate Suc-LLVY-AMC in 100 μl assay buffer (20 mM Tris-HCl, pH 7.5), in the presence of EGCG or EGCG analogs at different concentrations or the solvent for 2 h at 37° C., followed by measurement of hydrolysis of the fluorogenic substrates using a Wallac Victor3™ multi-label counter with 355-nm excitation and 460-nm emission wavelengths.

In assay [2] the target is T2, proteasomal chymotrypsin-like activity of MDA-MB-231 cell extracts (Homo sapiens, UniProt P28074).
T2 construct: endogenous in cells; host or cells: MDA-MB-231 human breast cancer cells (ATCC), cell extract
T2 sequence (P28074 60-263): T1 sequence (G1T4Q9 60-263) with D197E
Kind of assay: Proteasomal chymotrypsin-like activity in MDA-MB-231 cell lysate with high COMT activity. It is filed as biochemical. Particulars: 10 μM. As for the experimental part:
(A) MDA-MB-231 cell extracts (5.7 μg) were incubated with different concentrations of compound 5 or 7 or EGCG for 2 hours, followed by performance of proteasomal chymotrypsin-like activity assay. EGCG was used as a control. (B) MDA-MB-231 cell extracts (5.7 μg) were pre-treated with 10 μM DNC for 20 minutes, followed by co-incubation with compound 5, or 7 or EGCG for 2 h. The proteasomal chymotrypsin-like activity was measured.
Human breast cancer MDA-MB-231 cell lysate that contains high COMT activity were treated with varying concentrations of compound 5 or 7. […] Thus, consistent with previous reports EGCG is also susceptible to methylation by COMT (H., Lu, X. Meng, C. S. Yang, Drug Metabolism and Disposition; 31; 572, 2003).

For assay [3], the system named is human multiple myeloma ARP cells. Kind of assay: MTT assay in multiple myeloma ARP cells, alone or with Velcade. It is filed as cell-based. Particulars: 20 μM plus varying doses of Velcade, 48 h. How it is done:
The cells were treated with Velcade™ alone or with 20 μM of compounds 5, 7 and 23 or in combination with varying doses of Velcade™ for 48 hrs, followed by a MTT assay.
Human multiple myeloma cells (Arp and Opm1) cells, kindly provided by Dr. Ramesh Batchu (Wayne State University), were grown in RPMI-1640 medium supplemented with 10% FBS, 100 units/ml of penicillin, and 100 μg/ml of streptomycin. Cells were maintained at 37° C. in 5% CO2 (Mujtaba T, et al., Int J Mol Med. (2012) 29(1):102-6).
(§1) Cells were grown in a 96-well plate. Triplicate wells of cells were treated with indicated concentrations of EGCG or EGCG analogs for 24 h. After aspiration of medium, MTT (1 mg/ml) was then added to the cell cultures, followed by incubation for 3 h at 37° C. After cells were crystallized, MTT was removed and DMSO was added to dissolve the metabolized MTT product. The absorbance was then measured on a Wallac Victor3 1420 Multi-label counter at 540 nm.

The test system of assay [4] is Human breast cancer MDA-MB-231 cells. Kind of assay: MTT cell proliferation assay in MDA-MB-231 cells. It is filed as cell-based. Particulars: indicated concentrations, 24 h, MTT. As for the experimental part:
Human breast cancer MDA-MB-231 cells were treated with 25 or 50 μM EGCG analogs for 24 hours, followed by MTT assay. Pro-EGCG was used as a comparison.
Human breast cancer MDA-MB-231 cells with high COMT activity were treated with 50 μM EGCG analogs for 24 hours in the absence or presence of 10 μM DNC, followed by MTT assay. Pro-EGCG was used as a comparison.
(A) EGCG analogs 23 and 30 inhibited breast cancer cell proliferation. MDA-MB-231 cells were treated with indicated concentrations of 23, 30 or metformin for 24 h, followed by a MTT assay. *, P<0.1; **, P<0.01. Columns, mean of three experiments; bars, SD. (B) EGCG analogs 23 and 30 activated AMPK at a dose-dependent manner, measured by elevated level of phosphor-AMPKα and its downstream proteins of phosphor-Raptor. […] MDA-MB-231 cells were treated with indicated concentrations of 23 or 30 for 3 h, followed by Western blot analysis with the indicated antibodies. The numbers underneath the Western results of p-AMPKα indicated normalized phosphor-AMPKα/β-actin ratios. […]
as §1

Regarding `O=C(O[C@@H]1Cc2c(O)cc(O)cc2O[C@@H]1c1cc(O)c(O)c(O)c1)c1cc(O)c(O)c(O)c1` [Compound 1, (−)-Epigallocatechin gallate, reference compound], in assay [1], the “proteasomal inhibition (in words)” value was “potently inhibited”. In assay [2], this compound returned an inhibition at 10 µM of about 22%.
For the compound `O=C(O[C@H]1Cc2ccccc2C[C@H]1OC(=O)c1cc(O)c(Br)c(O)c1)c1cc(O)c(Br)c(O)c1` [Compound 23], the “effect on cell proliferation when combined with Velcade” value in assay [3] was “synergistic inhibitory effect”. The “inhibition of cell proliferation (in words)” value in assay [4] is reported as “inhibit cell proliferation in a dose-dependent manner”.
As to `Nc1ccc(C(=O)O[C@H]2Cc3ccccc3C[C@H]2OC(=O)c2ccc(N)cc2)cc1` [Compound 30], in assay [4], the “inhibition of cell proliferation (in words)” value is listed as “inhibit cell proliferation in a dose-dependent manner”.
